Values quoted from earlier work as cited in US20090186859A1, “DIAZENIUMDIOLATED NON-STEROIDAL ANTI-INFLAMMATORY DRUGS, COMPOSITIONS THEREOF, AND RELATED METHODS” (THE UNITED STATES OF AMERICA, AS REPRESENTED BY THE SEC., …, priority 2006, published 2009).

Experiments:
colon carcinogenesis = conditions: AOM-treated rat model
tumor = conditions: APC(Min)+ mouse model
[1] = long-term administration to animals
intestinal tumorigenesis = conditions: APC (DELTA 716) mice
[2] = test system: colonic aberrant crypt foci; conditions: male F344 rats
[3] = test system: hormone-positive tumors (estrogen receptor (ER) or progesterone receptor (PR)-positive); conditions: women who took aspirin seven or more times a week vs women who did not take it
colon polyp formation = conditions: those at high risk, including those already treated for colorectal cancer

## CC(C)Cc1ccc(C(C)C(=O)O)cc1 (stereo not drawn) [ibuprofen]
Colon carcinogenesis
  inhibition of colon carcinogenesis: effectively inhibit colon carcinogenesis

## CC(C(=O)O)c1ccc(-c2ccccc2)c(F)c1 (stereo not drawn) [flurbiprofen]
tumor
  anti-tumor effects: demonstrated anti-tumor effects

## COc1ccc2c(c1)c(CC(=O)O)c(C)n2C(=O)c1ccc(Cl)cc1 [indomethacin]
Colon carcinogenesis
  inhibition of colon carcinogenesis: effectively inhibit colon carcinogenesis

## O=NN1CCC[C@H]1C(=O)O [N-nitrosoproline]
[1]
  tumorigenicity: none of these studies showed it to be tumorigenic

## CS(=O)(=O)c1ccc(C2=C(c3ccc(F)c(F)c3)C(=O)OC2)cc1 [MF-Tricyclic]
Intestinal tumorigenesis
  intestinal tumorigenesis: blocks intestinal tumorigenesis

## CN1C(C(=O)Nc2ccccn2)=C(O)c2ccccc2S1(=O)=O [piroxicam]
Colon carcinogenesis
  inhibition of colon carcinogenesis: effectively inhibit colon carcinogenesis

## COc1ccc2cc(CCC(C)=O)ccc2c1 [nabumetone]
[2]
  formation of colonic aberrant crypt foci: inhibit formation of colonic aberrant crypt foci

## CC(=O)Oc1ccccc1C(=O)O [aspirin, acetylsalicylic acid]
[3]
  lower risk of developing hormone-positive tumors: 26%
Colon carcinogenesis
  inhibition of colon carcinogenesis: effectively inhibit colon carcinogenesis
Colon polyp formation
  colon polyp formation: significantly reduce colon polyp formation

## CS(=O)(=O)Nc1ccc([N+](=O)[O-])cc1Oc1ccccc1 [nemisulide]
[2]
  formation of colonic aberrant crypt foci: inhibit formation of colonic aberrant crypt foci

## CC1=C(CC(=O)O)c2cc(F)ccc2/C1=C\c1ccc([S+](C)[O-])cc1 (stereo not drawn) [sulindac]
Colon carcinogenesis
  inhibition of colon carcinogenesis: effectively inhibit colon carcinogenesis
